Holding throughout (assay type): functional, Cricetulus griseus
Test [1] has as its system CHO. The test can be described thus: The sensitizing capacity for colchicine treatment of multi drug resistance (MDR) CHO cell at concentration 1.0(mg/L).
Test [2] has as its system CHO. The test can be described thus: The sensitizing capacity for colchicine treatment of multi drug resistance(MDR) in CHO cell at concentration 0.1(mg/L).
The test system of test [3] is CHO. In words: Sensitization of colchicine treated parental (PAR)CHO cells, measured at concentration 0.1(mg/L).
The subject of test [4] is CHO. In words: The sensitizing capacity for colchicine treatment of parental (PAR)CHO cells at concentration 1.0 (mg/L).

With `CC[C@H](C)[C@H]1C(=O)NCC(=O)N(C)[C@@H](C(C)C)C(=O)N[C@@H](Cc2ccc(OC)cc2)C(=O)O[C@H](C)C(=O)N2CCCC[C@H]2C(=O)N(C)[C@@H](C(C)C)C(=O)N[C@@H](C(C)C)C(=O)N(C)[C@@H](CC(=O)OC23CC4CC(CC(C4)C2)C3)C(=O)N(C)[C@@H]([C@@H](C)CC)C(=O)N1C`, the Activity came to 77 in test [1], 1.9 in test [2], 4.5 in test [3] and 6 in test [4].
For `CC[C@@H](C)[C@H]1C(=O)NCC(=O)N(C)[C@@H](C(C)C)C(=O)N[C@@H](Cc2ccc(OC)cc2)C(=O)O[C@H](C)C(=O)N2CCCC[C@H]2C(=O)N(C)[C@@H](C(C)C)C(=O)N[C@@H](C(C)C)C(=O)N(C)[C@H](CC(=O)NC(c2ccccc2)c2ccccc2)C(=O)N(C)[C@@H]([C@@H](C)CC)C(=O)N1C` the same measures were 147, 6.4, 7.5 and 13.
Taken in the same sequence, the figures for `CC[C@@H](C)[C@H]1C(=O)NCC(=O)N(C)[C@@H](C(C)C)C(=O)N[C@@H](Cc2ccc(OC)cc2)C(=O)O[C@H](C)C(=O)N2CCCC[C@H]2C(=O)N(C)[C@@H](C(C)C)C(=O)N[C@@H](C(C)C)C(=O)N(C)[C@H](CC(=O)N(C)C)C(=O)N(C)[C@@H]([C@@H](C)CC)C(=O)N1C` were 36, 1.2, 5.9 and 8.5.
With `C=CCOc1ccc(C[C@@H]2NC(=O)[C@H](C(C)C)N(C)C(=O)CNC(=O)[C@H]([C@@H](C)CC)N(C)C(=O)[C@H]([C@@H](C)CC)N(C)C(=O)[C@H](CC(=O)OC(C)(C)C)N(C)C(=O)[C@H](C(C)C)NC(=O)[C@H](C(C)C)N(C)C(=O)[C@@H]3CCCCN3C(=O)[C@@H](C)OC2=O)cc1`, the Activity in test [1] is 9.6; in test [2] it was 1.5; in test [3], 5.8; in test [4] it was 11.
With `CC[C@H](C)[C@H]1C(=O)N(C)[C@@H]([C@@H](C)CC)C(=O)NCC(=O)N(C)[C@@H](C(C)C)C(=O)N[C@@H](Cc2ccc(OC)cc2)C(=O)O[C@H](C)C(=O)N2CCCC[C@H]2C(=O)N(C)[C@@H](C(C)C)C(=O)N[C@@H](C(C)C)C(=O)N(C)[C@H](CC(=O)N2CCC[C@H]2C(=O)OC(C)(C)C)C(=O)N1C`, the Activity in test [1] was 222; in test [2], 10; in test [3], 6.8; in test [4], 8.2.
Taken in the same sequence, the figures for `CC[C@H](C)[C@H]1C(=O)NCC(=O)N(C)[C@@H](C(C)C)C(=O)N[C@@H](CC(=O)OC)C(=O)O[C@H](C)C(=O)N2CCCC[C@H]2C(=O)N(C)[C@@H](C(C)C)C(=O)N[C@@H](C(C)C)C(=O)N(C)[C@@H](CC(=O)OC)C(=O)N(C)[C@@H]([C@@H](C)CC)C(=O)N1C` were 3.5, 1.1, 1.9 and 5.6.
Taken in the same sequence, the figures for `CC[C@H](C)[C@H]1C(=O)NCC(=O)N(C)[C@@H](C(C)C)C(=O)N[C@@H](Cc2ccc(OC)cc2)C(=O)O[C@H](C)C(=O)N2CCCC[C@H]2C(=O)N(C)[C@@H](C(C)C)C(=O)N[C@@H](C(C)C)C(=O)N(C)[C@@H](CC(=O)NC[Si](C)(C)C)C(=O)N(C)[C@@H]([C@@H](C)CC)C(=O)N1C` were 163, 3.3, 6.7 and 11.
Taken in the same sequence, the figures for `CC[C@@H](C)[C@H]1C(=O)NCC(=O)N(C)[C@@H](C(C)C)C(=O)N[C@@H](Cc2ccc(OC)cc2)C(=O)O[C@H](C)C(=O)N2CCCC[C@H]2C(=O)N(C)[C@@H](C(C)C)C(=O)N[C@@H](C(C)C)C(=O)N(C)[C@H](CC=O)C(=O)N(C)[C@@H]([C@@H](C)CC)C(=O)N1C` were 28, 1.1, 4.6 and 8.2.
